Several values for one entry are separate records, joined by “and”; a condition that tells them apart may be missing. Identical values can stand only once.
Legend:
Assay type in all cases: cell-based, human
[1] = system: composite ISG score in SSc PBMCs; test: SSc PBMC composite ISG score (CXCL10, IFIT1, ISG15, MX1); conditions: sheet Ext. 9e; SSc PBMCs; 20 values per compound (one per patient sample)
Description: (§1) PBMCs in vitro experiments
(§2) Peripheral blood mononuclear cells (PBMCs) from healthy and SSc donors were separated using density gradient method (Leucosep™, Greiner Bio-One International) from EDTA anticoagulated peripheral blood; isolated cells were washed twice by PBS. PBMCs were then incubated in RPMI1640 […]
(§3) For healthy PBMCs, cells were stimulated with 20 ng/mL of IFN (+/- compounds or DMSO). For SSc PBMCs, cells were in basal conditions with no additional IFN stimulation. Cells were centrifuged at 300 g for 10 minutes. […]
(§4) RNA was extracted from cell pellets using TRIzol™ (ThermoFisher
(§5) Scientific, Waltham, MA) and processed using Quick-RNA Miniprep Kit (Zymo Research) as per the manufacturer’s instruction.
(§6) For Type I IFN signalling analysis, the human IFN I RT2 Profiler PCR Array (Qiagen, PAMM-016ZE) was performed on available RNA from healthy (n=3) and SSc (n=9) donors. RNA was converted to cDNA using RT2 First Strand Kit (Qiagen). Next, the cDNA was mixed with RT2 SYBR Green Mastermix (Qiagen, Venlo). Successful PCR performance was confirmed by assay tests for genomic DNA contamination, RNA sample quality, as well as single melt curve determination and <35 Ct for each gene, leading to validated gene expression of 67 genes. Relative expression for each gene was determined, firstly by ∆CT calculated using the geometric mean of 4 housekeeping genes (ACTB, GAPDH, HPRT1, RPLP0), followed by 2^(-∆CT), and expressed as fold change to control, according to manufacturer’s guidance. IFN2α-induced ISGs in healthy donors were determined using a Student’s t-test (two-tail distribution and equal variances) on the triplicate fold change in 2^(-ΔCT) values between […]
(§7) donors). Heatmaps were generated using the “pheatmap” function in R (v4.0.2) and RStudio (v1.3.1093) applying row scaling to standardise the expression data across samples (R core team 2020.
(§8) R Foundation for Statistical Computing). The IFN2α inducible genes determined in healthy donors […]
(§9) 171-C. To account for Type I IFN signalling heterogeneity across samples, the mean 2^(-∆CT) for each […]
(§10) relative gene expression, illustrated as a fold change and visualised in log2. The Type I IFN signalling array data for the patient samples is included in Source Data Figure 6, Extended Data Fig. 9.

[2] = system: ISRE in THP-1 cells (TLR3 agonist polyI:C); test: THP-1 ISRE luciferase reporter, polyI:C stimulation; conditions: polyI:C 1 µg/mL, 4 μM compound, 16 h
Description: (§11) THP-1 in vitro experiments
(§12) THP-1-DualTM cells (InvivoGen), derived from a human monocytic cell line, isolated from a patient with acute monocytic leukaemia, were cultured as per manufacturer’s guidance. Cells were seeded at 1x10^6 cells/mL in RPMI1640 media containing 10% fetal bovine serum (FBS), 1% penicillin-streptomycin (PS) (Gibco Laboratories) with DMSO (0.1%) (control) or in media containing JMS-175- […]
(§13) ng/mL) (Merck Life Science), ODN 2216 (1 µM) (Miltenyi Biotec), or Poly:IC (1 µg/mL) (InvivoGen).
(§14) Tofacitinib (Cambridge Biosciences) at 0.4 µM was used for comparison against a known JAK inhibitor.
(§15) Cells were centrifuged at 300 g for 5 minutes. Supernatant was removed and subjected to simultaneous study of the NF -κB pathway, by monitoring the activity of secreted alkaline phosphatase reporter (SEAP), and the IRF pathway, by assessing the activity o f a secreted Lucia luciferase using QUANTI - Blue ™ Solution and QUANTI -Luc™ 4 Lucia/Gaussia (InvivoGen), respectively, as per manufacturer’s instructions. Pelleted cells were used for FACS analysis using IFNα/β R1 APC-conjugated antibody or isotype control (Biotechne, FAB245A and IC002A), or unstained staining procedure with and without Zombie GreenTM (Biolegend). Samples were analysed using CytoFlex LX (Beckman) (50,000 live cells per condition). Median fluorescence intensity for APC channel gated on single cell live cells was analysed and compared as a percentage to control (no stimulation condition). […]

[3] = system: ISG expression in SSc PBMCs; test: SSc PBMC type I IFN signaling gene expression array, unstimulated; conditions: unstimulated PBMCs from SSc patients; one value per patient (P1-P9)
Description: as §1, §2, §3, §4, §5, §6, §7, §8, §9, §10

[4] = system: NF-κB pathway in THP-1 cells; test: THP-1 NF-κB pathway SEAP reporter, lipopolysaccharide stimulation; conditions: LPS + compound, three replicates
Description: as §11, §12, §13, §14, §15

[5] = system: CXCL10 secretion in healthy PBMCs; test: Healthy PBMC CXCL10 ELISA, IFNα2-stimulated
Description: as §1, §2
For healthy PBMCs, cells were stimulated with 20 ng/mL of IFN (+/- compounds or DMSO). For SSc PBMCs, cells were in basal conditions with no additional IFN stimulation. Cells were centrifuged at 300 g for 10 minutes. Supernatant was removed and subjected to R&D Systems DY266 Human CXCL10/IP-10 DuoSet ELISA (Biotechne) in duplicates, according to manufacturer’s guidance. Concentration of CXCL10 was determined according to a 4-parameter

Cn1cc(NC(=O)c2c(Cl)cccc2Cl)c(C(=O)NC2CCN(C(=O)c3c(Cl)cccc3Cl)CC2)n1 [AP-5-145]
CXCL10 [1]: 1.751 and 0.25 and 0.7382 and 0.8655 and 0.7967 and 0.4021 and 0.5617 and 1.22 and 0.6479 and 2.776 and 1.1866 and 0.5017 and 0.551 and 0.4363 and 0.9229 and 0.6553 and 1.25 and 0.7409 and 0.339 and 0.3688
IFIT1 [1]: 0.6337 and 0.5474 and 0.8263 and 0.6524 and 0.6203 and 0.9706 and 0.5382 and 1.166 and 0.8191 and 0.9287 and 1.423 and 0.5364 and 0.8639 and 0.4363 and 0.9229 and 1.253 and 1.322 and 1.329 and 0.8934 and 0.7188
ISG15 [1]: 1.377 and 0.6237 and 1.266 and 0.7354 and 0.9639 and 0.9802 and 0.5935 and 1.766 and 0.659 and 0.6409 and 0.6943 and 0.6974 and 1.099 and 0.4464 and 1.007 and 1.459 and 1.622 and 0.4684 and 1.547 and 1.209
MX1 [1]: 0.9424 and 0.9381 and 0.6518 and 0.8276 and 0.6072 and 1.137 and 0.7908 and 1.689 and 0.9753 and 0.9313 and 1.364 and 0.7737 and 0.8832 and 0.4676 and 0.7628 and 0.9541 and 1.254 and 0.9134 and 1.016 and 0.8618
ISRE luciferase signal in THP-1 supernatant [2]: 502.333 and 324.667 and 347.333
ADAR, Type I IFN signalling array raw data [3]: 3.585 and 4.485 and 4.334 and 4.353 and 5.313 and 4.699 and 4.415 and 5.111 and 3.559
BST2, Type I IFN signalling array raw data [3]: 3.184 and 2.458 and 3.302 and 3.672 and 2.309 and 1.595 and 4.59 and 3.685 and 1.654
CASP1, Type I IFN signalling array raw data [3]: 1.628 and 0.9815 and 2.95 and 3.664 and 1.948 and 2.361 and 2.033 and 2.206 and 1.183
CD86, Type I IFN signalling array raw data [3]: 4.785 and 2.783 and 4.5852 and 3.1897 and 4.314 and 3.552 and 4.0343 and 4.013 and 3.55
CXCL10, Type I IFN signalling array raw data [3]: 2.8643 and 6.708 and 5.453 and 2.734 and 4.396 and 4.529 and 5.68 and 6.078 and 3.688
DDX58, Type I IFN signalling array raw data [3]: 2.4595 and 2.543 and 3.026 and 3.209 and 2.763 and 1.787 and 3.543 and 4.173 and 1.175
GBP1, Type I IFN signalling array raw data [3]: 0.1474 and 2.145 and 2.622 and 1.459 and 0.8545 and 1.754 and 2.939 and 2.1766 and -0.4621
IFI6, Type I IFN signalling array raw data [3]: 2.465 and 2.227 and 2.936 and 2.73 and 1.772 and 0.8033 and 3.207 and 3.6638 and 1.0872
IFI16, Type I IFN signalling array raw data [3]: 1.83 and 1.644 and 2.049 and 2.362 and 1.331 and 1.292 and 2.492 and 2.951 and 1.1658
IFIH1, Type I IFN signalling array raw data [3]: 3.174 and 3.642 and 3.693 and 3.986 and 3.429 and 3.042 and 4.0109 and 5.193 and 2.582
IFIT1, Type I IFN signalling array raw data [3]: 4.24 and 3.643 and 3.989 and 4.293 and 2.488 and 1.397 and 4.575 and 7.138 and 1.6699
IFIT2, Type I IFN signalling array raw data [3]: 3.353 and 3.202 and 2.7801 and 3.719 and 2.327 and 0.07597 and 4.728 and 5.592 and 0.851
IFIT3, Type I IFN signalling array raw data [3]: 2.463 and 3.281 and 3.064 and 3.575 and 3.043 and 1.248 and 5.135 and 5.476 and 1.263
IFITM1, Type I IFN signalling array raw data [3]: -0.2471 and 0.1243 and 0.2716 and 1.178 and 0.8183 and 0.3168 and 1.196 and 1.705 and -0.8285
IFITM2, Type I IFN signalling array raw data [3]: 3.999 and 3.471 and 4.22 and 5.1798 and 5.262 and 5.108 and 4.673 and 5.09 and 4.191
IFITM3, Type I IFN signalling array raw data [3]: 3.006 and 2.32 and 3.244 and 3.786 and 1.434 and -0.1662 and 3.42 and 4.49 and -0.2026
IRF1, Type I IFN signalling array raw data [3]: 1.06 and 1.224 and 2.232 and 2.144 and 1.15 and 2.067 and 2.585 and 1.973 and 0.5242
IRF7, Type I IFN signalling array raw data [3]: 5.407 and 5.206 and 4.576 and 6.178 and 4.455 and 3.933 and 5.89 and 5.935 and 9.933
IRF9, Type I IFN signalling array raw data [3]: 2.066 and 2.065 and 2.241 and 2.2692 and 1.294 and 1.106 and 2.973 and 2.809 and 0.8366
ISG15, Type I IFN signalling array raw data [3]: 2.596 and 6.312 and 3.3545 and 3.693 and 0.9621 and 0.3667 and 4.1244 and 6.015 and 0.1079
ISG20, Type I IFN signalling array raw data [3]: 2.432 and 2.479 and 2.547 and 3.375 and 2.843 and 3.174 and 3.393 and 3.464 and 1.322
MX1, Type I IFN signalling array raw data [3]: 4.424 and 4.226 and 3.58 and 4.634 and 2.28 and 2.399 and 4.395 and 5.558 and 2.679
MX2, Type I IFN signalling array raw data [3]: 4.173 and 3.658 and 2.952 and 4.357 and 2.358 and 2.074 and 3.745 and 4.851 and 2.355
MYD88, Type I IFN signalling array raw data [3]: 3.563 and 2.295 and 2.992 and 3.3169 and 2.321 and 1.993 and 3.136 and 2.869 and 2.18
NMI, Type I IFN signalling array raw data [3]: 1.73 and 1.406 and 2.205 and 1.958 and 1.878 and 1.724 and 2.633 and 2.762 and 1.099
OAS1, Type I IFN signalling array raw data [3]: 3.537 and 3.8519 and 3.958 and 4.26 and 2.489 and 2.393 and 5.01 and 4.925 and 2.848
OAS2, Type I IFN signalling array raw data [3]: 3.256 and 3.665 and 3.696 and 4.93 and 3.216 and 2.622 and 4.725 and 4.971 and 2.257
PML, Type I IFN signalling array raw data [3]: 3.769 and 4.451 and 4.457 and 4.682 and 3.169 and 3.581 and 5.048 and 5.21 and 2.632
SOCS1, Type I IFN signalling array raw data [3]: 4.276 and 3.145 and 2.943 and 3.915 and 3.6717 and 2.288 and 4.381 and 4.149 and 1.789
STAT1, Type I IFN signalling array raw data [3]: -1.171 and 0.5507 and 0.704 and -0.4526 and -0.2783 and 1.689 and 0.5533 and 0.2423 and -1.283
STAT2, Type I IFN signalling array raw data [3]: 3.543 and 4.373 and 3.597 and 3.344 and 3.627 and 3.236 and 4.148 and 3.986 and 2.129
STAT3, Type I IFN signalling array raw data [3]: 1.898 and 1.636 and 1.633 and 5.446 and 2.412 and 1.5196 and 2.3996 and 2.61 and 1.33
TAP1, Type I IFN signalling array raw data [3]: 1.436 and 1.649 and 2.5757 and 2.2546 and 2.075 and 1.836 and 3.734 and 2.309 and 0.9557
TNFSF10, Type I IFN signalling array raw data [3]: 2.318 and 2.989 and 3.028 and 3.374 and 2.092 and 2.434 and 3.558 and 3.768 and 2.177
NF-κB SEAP reporter signal [4]: 1.142 and 1.08 and 1.107
CXCL10, healthy donor PBMCs (Fig. 6c) ([5]; Healthy donor HC1): 89.7308
CXCL10, healthy donor PBMCs (Fig. 6c) ([5]; Healthy donor HC2): 123.351
CXCL10, healthy donor PBMCs (Fig. 6c) ([5]; Healthy donor HC3): 106.128
